# Source: US6472348B1, “Pyridone derivatives and herbicides” (Kumiai Chemical Industry Co., Ltd., priority 1996, dated 2002)
# Tested on: barnyardgrass (Ec)
# Assay: Test Example 3: herbicidal effects by upland field foliage treatment
# Type: in vivo
# Set-up: scale not given here
# Conditions: 100 g of the active ingredient per 10 ares, evaluated on the 14th day after treatment
# In short: (§1)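 Two-week-old greenhouse seedlings, raised in sand-filled pots (120 cm^2) with seed covered by soil, receive a foliar application. Effects are then evaluated by standard grades 14 days later, plants remaining in the greenhouse meanwhile.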
row,Compound,Herbicidal effects Ec
1,Cn1c(C(F)(F)F)ccc(-c2cc(Br)c(Cl)cc2F)c1=O [1-138],5

# Tested on: slender amaranth (Am)
# Assay: as above
# Type: in vivo
# Set-up: scale not given here
# Conditions: 100 g of the active ingredient per 10 ares, evaluated on the 14th day after treatment
# In short: as §1
row,Compound,Herbicidal effects Am
1,Cn1c(C(F)(F)F)ccc(-c2cc(Br)c(Cl)cc2F)c1=O [1-138],5

# Tested on: common lambsquarters (Ch)
# Assay: as above
# Type: in vivo
# Set-up: scale not given here
# Conditions: 100 g of the active ingredient per 10 ares, evaluated on the 14th day after treatment
# In short: as §1
row,Compound,Herbicidal effects Ch
1,Cn1c(C(F)(F)F)ccc(-c2cc(Br)c(Cl)cc2F)c1=O [1-138],5

# Tested on: rice flatsedge (Ci)
# Assay: as above
# Type: in vivo
# Set-up: scale not given here
# Conditions: 100 g of the active ingredient per 10 ares, evaluated on the 14th day after treatment
# In short: as §1
row,Compound,Herbicidal effects Ci
1,Cn1c(C(F)(F)F)ccc(-c2cc(Br)c(Cl)cc2F)c1=O [1-138],5

# Tested on: Diaitaria ciliaris (Di)
# Assay: as above
# Type: in vivo
# Set-up: scale not given here
# Conditions: 100 g of the active ingredient per 10 ares, evaluated on the 14th day after treatment
# In short: as §1
row,Compound,Herbicidal effects Di
1,Cn1c(C(F)(F)F)ccc(-c2cc(Br)c(Cl)cc2F)c1=O [1-138],5

# Tested on: pale smartweed (Po)
# Assay: as above
# Type: in vivo
# Set-up: scale not given here
# Conditions: 100 g of the active ingredient per 10 ares, evaluated on the 14th day after treatment
# In short: as §1
row,Compound,Herbicidal effects Po
1,Cn1c(C(F)(F)F)ccc(-c2cc(Br)c(Cl)cc2F)c1=O [1-138],5

# Tested on: soybean (Gl)
# Assay: Test Example 6: crop plant selectivity by upland field soil treatment (soybean), phytotoxicity
# Type: in vivo
# Set-up: scale not given here
# Conditions: dose 6.3 g ai/10a, 21st day after application
# In short: (§2)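 Greenhouse pot test with soil-applied compound after sowing soybean and weeds in sand; effects graded on day 21 after application.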
row,Compound,Phytotoxicity Gl
1,Cn1c(C(F)(F)F)ccc(-c2cc(Br)c(Cl)cc2F)c1=O [1-138],2

# Tested on: slender amaranth (Am)
# Assay: Test Example 6: crop plant selectivity by upland field soil treatment (soybean), herbicidal effects
# Type: in vivo
# Set-up: scale not given here
# Conditions: dose 6.3 g ai/10a, 21st day after application
# In short: as §2
row,Compound,Herbicidal effects Am
1,Cn1c(C(F)(F)F)ccc(-c2cc(Br)c(Cl)cc2F)c1=O [1-138],5

# Tested on: common lambsquarters (Ch)
# Assay: as above
# Type: in vivo
# Set-up: scale not given here
# Conditions: dose 6.3 g ai/10a, 21st day after application
# In short: as §2
row,Compound,Herbicidal effects Ch
1,Cn1c(C(F)(F)F)ccc(-c2cc(Br)c(Cl)cc2F)c1=O [1-138],5

# Tested on: green foxtail (Se)
# Assay: as above
# Type: in vivo
# Set-up: scale not given here
# Conditions: dose 6.3 g ai/10a, 21st day after application
# In short: as §2
row,Compound,Herbicidal effects Se
1,Cn1c(C(F)(F)F)ccc(-c2cc(Br)c(Cl)cc2F)c1=O [1-138],5

# Tested on: China jute (Ab)
# Assay: as above
# Type: in vivo
# Set-up: scale not given here
# Conditions: dose 6.3 g ai/10a, 21st day after application
# In short: as §2
row,Compound,Herbicidal effects Ab
1,Cn1c(C(F)(F)F)ccc(-c2cc(Br)c(Cl)cc2F)c1=O [1-138],4

# Tested on: pale smartweed (Po)
# Assay: as above
# Type: in vivo
# Set-up: scale not given here
# Conditions: dose 6.3 g ai/10a, 21st day after application
# In short: as §2
row,Compound,Herbicidal effects Po
1,Cn1c(C(F)(F)F)ccc(-c2cc(Br)c(Cl)cc2F)c1=O [1-138],5

# Tested on: slender amaranth (Am)
# Assay: Test Example 5: crop plant selectivity by upland field soil treatment (wheat), herbicidal effects
# Type: in vivo
# Set-up: scale not given here
# Conditions: dose 6.3 g ai/10a, 21st day after application
# Experimental: (§3) (Test on Crop Plant Selectivity by Upland Field Soil Treatment)
# (§4) In a plastic pot (surface area: 600 cm^2) filled with sand, wheat (Tr), Diaitaria ciliaris (Di), green foxtail (Se), pale smartweed (Po), slender amaranth (Am), common lambsquarters (Ch) and China jute (Ab) were sown and covered with soil. […] The plants were then cultured in a green house, and the evaluation of the herbicidal effects and phytotoxicity was conducted on the 21st day after the application in accordance with the standards as identified in Table 47. Symbol—represents “not tested”.
row,Compound,Herbicidal effects Am
1,Cn1c(C(F)(F)F)ccc(-c2cc(Br)c(Cl)cc2F)c1=O [1-138],5

# Tested on: common lambsquarters (Ch)
# Assay: as above
# Type: in vivo
# Set-up: scale not given here
# Conditions: dose 6.3 g ai/10a, 21st day after application
# Experimental: as §3, §4
row,Compound,Herbicidal effects Ch
1,Cn1c(C(F)(F)F)ccc(-c2cc(Br)c(Cl)cc2F)c1=O [1-138],5

# Tested on: green foxtail (Se)
# Assay: as above
# Type: in vivo
# Set-up: scale not given here
# Conditions: dose 6.3 g ai/10a, 21st day after application
# Experimental: as §3, §4
row,Compound,Herbicidal effects Se
1,Cn1c(C(F)(F)F)ccc(-c2cc(Br)c(Cl)cc2F)c1=O [1-138],5

# Tested on: China jute (Ab)
# Assay: as above
# Type: in vivo
# Set-up: scale not given here
# Conditions: dose 6.3 g ai/10a, 21st day after application
# Experimental: as §3, §4
row,Compound,Herbicidal effects Ab
1,Cn1c(C(F)(F)F)ccc(-c2cc(Br)c(Cl)cc2F)c1=O [1-138],4

# Tested on: pale smartweed (Po)
# Assay: as above
# Type: in vivo
# Set-up: scale not given here
# Conditions: dose 6.3 g ai/10a, 21st day after application
# Experimental: as §3, §4
row,Compound,Herbicidal effects Po
1,Cn1c(C(F)(F)F)ccc(-c2cc(Br)c(Cl)cc2F)c1=O [1-138],5

# Tested on: slender amaranth (Am)
# Assay: Test Example 7: crop plant selectivity by upland field soil treatment (corn), herbicidal effects
# Type: in vivo
# Set-up: scale not given here
# Conditions: dose 6.3 g ai/10a, 21st day after application
# Experimental: as §3
# (§5) In a plastic pot (surface area: 600 cm^2) filled with sand, corn (Ze), green foxtail (Se), pale smartweed (Po), slender amaranth (Am), common lambsquarters (Ch) and China jute (Ab) were sown and covered with soil. […] The plants were then cultured in a green house, and the evaluation of the herbicidal effects and phytotoxicity was conducted on the 21st day after the application in accordance with the standards as identified in Table 47.
row,Compound,Herbicidal effects Am
1,Cn1c(C(F)(F)F)ccc(-c2cc(Br)c(Cl)cc2F)c1=O [1-138],5

# Tested on: common lambsquarters (Ch)
# Assay: as above
# Type: in vivo
# Set-up: scale not given here
# Conditions: dose 6.3 g ai/10a, 21st day after application
# Experimental: as §3, §5
row,Compound,Herbicidal effects Ch
1,Cn1c(C(F)(F)F)ccc(-c2cc(Br)c(Cl)cc2F)c1=O [1-138],5
